Results from US20230295157A1, “3-(1H-IMIDAZOL-2-YL)-2,3,8,8A-TETRAHYDROINDOLIZIN-5(1H)-ONE DERIVATIVES USEFUL AS FACTOR XIA INHIBITORS” (JANSSEN PHARMACEUTICA NV, priority 2020, published 2023).
Like-named read-outs stand apart in the source and are kept apart here.

What was measured:
Factor XIa = Factor XIa (Homo sapiens (Human), UniProt P03951); assay: Factor XIa inhibition assay (FLINT) utilizing a fluorophore-quencher pair peptide substrate; assay type: biochemical; settings: 30 min preincubation, kinetic reads over 30 min, read-out: FXIa Kin Inh IC50
Procedure, shortened: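 FXIa ([…]) preincubated 30 min with compound (11-point 3-fold dilution, top 100 nM, 2% DMSO), then 15 μM quenched FXI Arg146-based peptide added; Tris pH 7.5, CaCl2, BSA, CHAPS. Fluorescence 485/520 nm read kinetically every 5 min over 30 min at RT; IC50 by 4-parameter fit.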

human plasma kallikrein = human plasma kallikrein (Homo sapiens (Human), UniProt P03952); assay: Kallikrein inhibition assay (FLINT) utilizing a quenched AMC peptide substrate; assay type: biochemical; settings: 30 min preincubation, read-out: Kallikrein Kin Inh IC50
Procedure, shortened: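 Enzyme (2 nM final) pre-incubated 30 min at room temperature with compound (11-point, 3-fold, top 1 μM, 2% DMSO), then 50 μM Z-Gly-Pro-Arg-AMC added in Tris pH 7.5 buffer. Kinetic fluorescence 340/440 nm every 5 min over 30 min; IC50 from 4-parameter logistic fit.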

[1] = 5Fam-KLTRAETV-K5Tamra substrate 15 μM
[2] = kinetic reads over 30 min, Z-Gly-Pro-Arg-AMC substrate 50 μM

Factor XIa, sequence (P03951 388-625): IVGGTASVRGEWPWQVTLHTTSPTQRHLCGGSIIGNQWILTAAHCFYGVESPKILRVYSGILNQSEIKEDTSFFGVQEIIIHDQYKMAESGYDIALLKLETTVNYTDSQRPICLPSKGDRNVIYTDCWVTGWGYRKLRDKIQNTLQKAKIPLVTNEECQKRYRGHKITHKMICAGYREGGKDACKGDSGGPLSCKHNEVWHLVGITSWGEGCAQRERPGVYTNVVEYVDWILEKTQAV
Factor XIa, sequence (P03951 19-387 partner): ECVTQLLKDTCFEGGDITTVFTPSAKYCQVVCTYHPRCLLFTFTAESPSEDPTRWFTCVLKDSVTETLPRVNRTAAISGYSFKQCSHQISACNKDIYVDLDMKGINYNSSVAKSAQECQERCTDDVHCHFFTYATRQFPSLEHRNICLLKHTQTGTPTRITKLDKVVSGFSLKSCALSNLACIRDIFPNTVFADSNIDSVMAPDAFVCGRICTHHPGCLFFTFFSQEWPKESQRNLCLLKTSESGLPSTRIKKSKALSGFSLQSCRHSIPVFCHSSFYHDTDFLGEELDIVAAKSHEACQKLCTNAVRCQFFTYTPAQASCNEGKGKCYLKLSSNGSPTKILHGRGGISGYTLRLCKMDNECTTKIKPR
human plasma kallikrein, sequence (P03952 391-638): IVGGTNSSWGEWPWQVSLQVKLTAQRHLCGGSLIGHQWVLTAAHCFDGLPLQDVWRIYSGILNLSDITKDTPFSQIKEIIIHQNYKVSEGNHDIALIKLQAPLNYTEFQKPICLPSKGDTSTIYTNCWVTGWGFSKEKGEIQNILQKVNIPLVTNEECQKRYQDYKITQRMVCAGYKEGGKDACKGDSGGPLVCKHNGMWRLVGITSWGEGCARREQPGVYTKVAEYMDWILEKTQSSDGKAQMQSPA
human plasma kallikrein, sequence (P03952 20-390 partner): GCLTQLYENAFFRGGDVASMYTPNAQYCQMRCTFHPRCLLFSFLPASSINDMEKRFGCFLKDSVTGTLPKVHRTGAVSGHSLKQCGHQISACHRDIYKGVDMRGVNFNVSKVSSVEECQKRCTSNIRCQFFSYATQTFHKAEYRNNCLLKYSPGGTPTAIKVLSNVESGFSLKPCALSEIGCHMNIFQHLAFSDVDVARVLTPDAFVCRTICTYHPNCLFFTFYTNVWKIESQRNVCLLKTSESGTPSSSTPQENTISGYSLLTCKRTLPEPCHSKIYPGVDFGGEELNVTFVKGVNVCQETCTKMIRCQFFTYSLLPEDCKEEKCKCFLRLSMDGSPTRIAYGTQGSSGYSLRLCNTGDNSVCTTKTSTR

| Compound | IC50 (Factor XIa; [1]) [nM] | IC50 (human plasma kallikrein; [2]) [µM] | IC50 (Factor XIa; 5Fam-[…]-K5Tamra substrate 15 μM) [nM] | IC50 (human plasma kallikrein; μM, kinetic reads) [µM] |
| --- | --- | --- | --- | --- |
| O=C1C=C(c2c(-n3cnnn3)ccc(Cl)c2F)C[C@H]2CC[C@@H](c3ncc(-c4ccnc(CO)c4F)[nH]3)N12 [Example 222, (3S,8aR)-7-(3-Chloro-2-fluoro-6-(1H-tetrazol-1-yl)phenyl)-3-(5-(3-fluoro-2-(hydroxymethyl)pyridin-4-yl)-1H-imidazol-2-yl)-2,3,8,8a-tetrahydroindolizin-5(1H)-one] | 1.8 | 0.0126 | – | – |
| [2H]c1cc(-c2[nH]c([C@@H]3CC[C@@H]4CC(c5c(-n6cnnn6)ccc(Cl)c5F)=CC(=O)N43)nc2[2H])c(F)nc1N [Example 145, (3S,8aR)-3-[5-(6-amino-5-deuterio-2-fluoro-3-pyridyl)-4-deuterio-1H-imidazol-2-yl]-7-[3-chloro-2-fluoro-6-(tetrazol-1-yl)phenyl]-2,3,8,8a-tetrahydro-1H-indolizin-5-one] | 0.6 | 0.0077 | – | – |
| O=C1C=C(c2c(-n3cnnn3)ccc(Cl)c2F)CC2CCC(c3ncc(-c4ccnc(-c5ccn[nH]5)c4)[nH]3)N12 (stereo not shown) [Example 53, 3-(5-(2-(1H-pyrazol-5-yl)pyridin-4-yl)-1H-imidazol-2-yl)-7-(3-chloro-2-fluoro-6-(1H-tetrazol-1-yl)phenyl)-2,3,8,8a-tetrahydroindolizin-5(1H)-one] | 1.7 | 0.0028 | – | – |
| O=C1C=C(c2c(-n3cnnn3)ccc(Cl)c2F)C[C@H]2CC[C@H](c3ncc(-c4ccnc(-n5cncn5)c4F)[nH]3)N12 (single isomer, unassigned) [Example 112, (3*R,8aR)-7-(3-chloro-2-fluoro-6-(1H-tetrazol-1-yl)phenyl)-3-(5-(3-fluoro-2-(1H-1,2,4-triazol-1-yl)pyridin-4-yl)-1H-imidazol-2-yl)-2,3,8,8a-tetrahydroindolizin-5(1H)-one] | 9.6 | 0.0206 | – | – |
| O=C1C=C(c2c(-n3cnnn3)ccc(Cl)c2F)C[C@H]2CC[C@@H](c3ncc(-c4ccnc(-n5nccn5)c4)[nH]3)N12 [Example 86, (3S,8aR)-7-[3-chloro-2-fluoro-6-(tetrazol-1-yl)phenyl]-3-[5-[2-(triazol-2-yl)-4-pyridyl]-1H-imidazol-2-yl]-2,3,8,8a-tetrahydro-1H-indolizin-5-one] | 4.6 | 0.0032 | – | – |
| CC1(C)C[C@@H](c2ncc(-c3ccc(N)nc3F)[nH]2)N2C(=O)C=C(c3c(-n4cnnn4)ccc(Cl)c3F)CC21 (stereo partly drawn) [Example 350, (3S)-3-(5-(6-Amino-2-fluoropyridin-3-yl)-1H-imidazol-2-yl)-7-(3-chloro-2-fluoro-6-(1H-tetrazol-1-yl)phenyl)-1,1-dimethyl-2,3,8,8a-tetrahydroindolizin-5(1H)-one] | 1.3 | 0.0185 | – | – |
| O=C1C=C(c2c(-n3cnnn3)ccc(Cl)c2F)C[C@H]2CC[C@@H](c3ncc(-c4ccnc(C[C@H](O)C(F)(F)F)c4F)[nH]3)N12 (single isomer, unassigned) [Example 143, (3S,8aR)-7-(3-chloro-2-fluoro-6-(1H-tetrazol-1-yl)phenyl)-3-(5-(3-fluoro-2-((*S)-3,3,3-trifluoro-2-hydroxypropyl)pyridin-4-yl)-1H-imidazol-2-yl)-2,3,8,8a-tetrahydroindolizin-5(1H)-one] | 2.4 | 0.033 | – | – |
| [2H]c1c(N)nc(F)c(-c2cnc([C@@H]3CC[C@@H]4CC(c5c(-n6cnnn6)ccc(Cl)c5F)=CC(=O)N43)[nH]2)c1[2H] [Example 151, (3S,8aR)-3-[5-(6-amino-4,5-dideuterio-2-fluoro-3-pyridyl)-1H-imidazol-2-yl]-7-[3-chloro-2-fluoro-6-(tetrazol-1-yl)phenyl]-2,3,8,8a-tetrahydro-1H-indolizin-5-one] | 0.6 | 0.0089 | – | – |
| NC(=O)c1sc(-c2c[nH]c([C@@H]3CC[C@H]4CC(c5c(-n6cnnn6)ccc(Cl)c5F)=CC(=O)N43)n2)cc1F [Example 215, 5-(2-((3S,8aS)-7-(3-Chloro-2-fluoro-6-(1H-tetrazol-1-yl)phenyl)-5-oxo-1,2,3,5,8,8a-hexahydroindolizin-3-yl)-1H-imidazol-4-yl)-3-fluorothiophene-2-carboxamide] | > 100 | 0.117 | – | – |
| O=C1C=C(c2c(-n3cnnn3)ccc(Cl)c2F)C[C@H]2CC[C@@H](c3ncc(-c4ccnc(C5COC5)c4F)[nH]3)N12 [Example 130, (3S,8aR)-7-(3-chloro-2-fluoro-6-(1H-tetrazol-1-yl)phenyl)-3-(5-(3-fluoro-2-(oxetan-3-yl)pyridin-4-yl)-1H-imidazol-2-yl)-2,3,8,8a-tetrahydroindolizin-5(1H)-one] | 3.5 | 0.0127 | – | – |
| Nc1noc2ccc(-c3cnc([C@@H]4CC[C@@H]5CC(c6c(-n7cnnn7)ccc(Cl)c6F)=CC(=O)N54)[nH]3)cc12 [Example 201, (3S,8aR)-3-(5-(3-aminobenzo[d]isoxazol-5-yl)-1H-imidazol-2-yl)-7-(3-chloro-2-fluoro-6-(1H-tetrazol-1-yl)phenyl)-2,3,8,8a-tetrahydroindolizin-5(1H)-one] | 9.1 | 0.0069 | – | – |

Continued, values first:

| IC50 (Factor XIa; [1]) [nM] | IC50 (human plasma kallikrein; [2]) [µM] | IC50 (Factor XIa; 5Fam-[…]-K5Tamra substrate 15 μM) [nM] | IC50 (human plasma kallikrein; μM, kinetic reads) [µM] | Compound |
| --- | --- | --- | --- | --- |
| 4.3 | 0.0166 | – | – | C[C@@H](C#N)c1nccc(-c2cnc([C@@H]3CCC4CC(c5c(-n6cnnn6)ccc(Cl)c5F)=CC(=O)N43)[nH]2)c1F (relative stereo) [Example 164, (2*R)-2-(4-(2-((3S)-7-(3-chloro-2-fluoro-6-(1H-tetrazol-1-yl)phenyl)-5-oxo-1,2,3,5,8,8a-hexahydroindolizin-3-yl)-1H-imidazol-5-yl)-3-fluoropyridin-2-yl)propanenitrile] |
| 3.7 | 0.0041 | – | – | O=C1C=C(c2c(-n3cnnn3)ccc(Cl)c2F)C[C@@H]2CC[C@H](c3ncc(-c4ccnc(N5CCC[C@@H](O)C5)c4F)[nH]3)N12 (stereo in doubt) [Example 187, (3R,8aS)-7-(3-chloro-2-fluoro-6-(1H-tetrazol-1-yl)phenyl)-3-(5-(3-fluoro-2-((R)-3-hydroxypiperidin-1-yl)pyridin-4-yl)-1H-imidazol-2-yl)-2,3,8,8a-tetrahydroindolizin-5(1H)-one] |
| 8 | 0.123 | – | – | NC(=O)Cc1nccc(-c2cnc([C@@H]3CC[C@@H]4CC(c5c(-n6cc(C(F)(F)F)nn6)ccc(Cl)c5F)=CC(=O)N43)[nH]2)c1F (single isomer, unassigned) [Example 165, 2-(4-(24(3*S,8a*R)-7-(3-chloro-2-fluoro-6-(4-(trifluoromethyl)-1H-1,2,3-triazol-1-yl)phenyl)-5-oxo-1,2,3,5,8,8a-hexahydroindolizin-3-yl)-1H-imidazol-5-yl)-3-fluoropyridin-2-yl)acetamide] |
| 16.6 | 0.0354 | – | – | O=C(NC12CC(C1)C2)c1nccc(-c2cnc([C@@H]3CC[C@@H]4CC(c5c(-n6cnnn6)ccc(Cl)c5F)=CC(=O)N43)[nH]2)c1F [Example 104, N-(bicyclo[1.1.1]pentan-1-yl)-4-(2-((3S,8aR)-7-(3-chloro-2-fluoro-6-(1H-tetrazol-1-yl)phenyl)-5-oxo-1,2,3,5,8,8a-hexahydroindolizin-3-yl)-1H-imidazol-5-yl)-3-fluoropicolinamide] |
| – | 0.0679 | 0.8 | – | O=C(O)c1nccc(-c2cnc([C@@H]3CC[C@@H]4CC(c5cc(Cl)ccc5-n5cc(C(F)(F)F)nn5)=CC(=O)N43)[nH]2)c1F (single isomer, unassigned) [Example 54, 4-(2-((3S*,8aR)-7-(5-chloro-2-(4-(trifluoromethyl)-1H-1,2,3-triazol-1-yl)phenyl)-5-oxo-1,2,3,5,8,8a-hexahydroindolizin-3-yl)-1H-imidazol-5-yl)-3-fluoropicolinic acid] |
| 0.6 | 0.0055 | – | – | CC1C[C@@H](c2ncc(-c3ccc(N)nc3Cl)[nH]2)N2C(=O)C=C(c3c(-n4cnnn4)ccc(Cl)c3F)CC12 (stereo partly drawn) [Example 347, (3S)-3-(5-(6-Amino-2-chloropyridin-3-yl)-1H-imidazol-2-yl)-7-(3-chloro-2-fluoro-6-(1H-tetrazol-1-yl)phenyl)-1-methyl-2,3,8,8a-tetrahydroindolizin-5(1H)-one] |
| 10.6 | 0.0095 | – | – | NC(=O)c1cc(-c2cnc([C@@H]3CC[C@@H]4CC(c5c(-n6cnnn6)ccc(Cl)c5F)=CC(=O)N43)[nH]2)ccn1 (single isomer, unassigned) [Example 206] |
| > 100 | – | – | 1.05 | Cn1cc(-c2ccccc2NC(=O)C2CC2)nc1[C@@H]1CC[C@@H]2CC(c3c(-n4cnnn4)ccc(Cl)c3F)=CC(=O)N21 (single isomer, unassigned) [Example 298, N-(2-(2-((3S,8aR*)-7-(3-Chloro-2-fluoro-6-(1H-tetrazol-1-yl)phenyl)-5-oxo-1,2,3,5,8,8a-hexahydroindolizin-3-yl)-1-methyl-1H-imidazol-4-yl)phenyl)cyclopropanecarboxamide] |
| 0.6 | 0.0129 | – | – | O=C1C=C(c2c(-n3cnnn3)ccc(Cl)c2F)C[C@H]2CC[C@@H](c3ncc(-c4c[nH]nc4C(F)(F)F)[nH]3)N12 (single isomer, unassigned) [Example 240, (3*S,8a*R)-7-(3-Chloro-2-fluoro-6-(1H-tetrazol-1-yl)phenyl)-3-(5-(3-(trifluoromethyl)-1H-pyrazol-4-yl)-1H-imidazol-2-yl)-2,3,8,8a-tetrahydroindolizin-5(1H)-one] |
